# Source: patent US20250319096A1, “METHODS AND COMPOUNDS FOR TREATING INFLAMMATION” ([…] INCORPERATED, priority 2021, published 2025)
# Like-named read-outs stand apart in the source and are kept apart here.
# What was measured:
# GABAA receptors [1] = conditions: literature value, ref [37]; read-out: reported IC50 (GABAAR binding); cited from earlier work
# [2] = system: colon MPO activity (Myeloperoxidase); assay: MPO assay on whole colon homogenates of DSS mice; type: in vivo; conditions: 100 mg/kg daily in peanut butter, 3% DSS water
# Method: (§1) Ten (10) week old female Swiss Webster mice were offered 3% Dextran sodium sulfate (DSS) water to induce ulcerative colitis. Group 1 (n=8) received daily peanut butter (200 mg) and group 2 (n=8) received 100 mg/kg PI320 in peanut butter. The animals were weighted daily. See, FIGS. 1A and 1B.
# MPO assay: Whole colons were homogenized in phosphate buffer and centrifuge at 10,000 rpm at 4° C. from 10 min. The protein concentration supernatant was determined with a BCA assay and adjusted to 200 μg/ml with the addition of phosphate buffer. A daily standard solution for the hydrogen peroxide solution was prepared to a concentration of 0.0024% from a 35% v/v stock. The phosphate buffer that was prepared for the BCA assay was utilized for the dilution step of this assay. O-dianisidine dihydrogen chloride was prepared at a concentration of 167 μg/mL in phosphate buffer and sonicated for 30 min to dissolve in the buffer. 8 µL of protein solution was transferred to a 384 well plate containing 62 μL of the o-dianisidine solution. The reaction is initiated with the addition of 10 μL of the hydrogen peroxide solution prepared above. […] The product of this reaction shifts the absorbance to the λmax to 460 nm. The plate is then measured over a 15 min period in the plate reader in 30 sec intervals. […]
# GABAA receptors [3] = assay: GABAA receptor binding, [3H]-flunitrazepam displacement on rat brain membranes; conditions: n=6, read-out: GABAAR binding (IC50)
# Method: Rat brain membranes are prepared from frozen tissue that was thawed on ice, homogenized on ice in 10 volumes of cold lysis buffer (50 mM Tris HCl, pH 7.4, containing protease inhibitor cocktail from Roche) using a Polytron homogenizer (6 pulses and 10 seconds per pulse). The homogenate is centrifuged at 1,000×g for 10 min at 4° C. to obtain supernatant. The supernatant is then centrifuged at 40,000×g for 20 min, and then the resulting supernatant is decanted and replaced with the same ice-cold lysis buffer. Two or three additional rounds of homogenization-centrifugation are performed to ensure thorough homogenization and also to wash out endogenous ligands. The final pellet is resuspended in the same buffer and homogenized one last time. The rat brain suspension is diluted in buffer (50 mM Tris HCl, 2.5 mM CaCl2), pH 7.4), followed by the addition of [3H]-flunitrazepam (0.6-4.0 nM in DMSO) and PI320 or PI310 in DMSO at different concentrations to reach a final of volume of 125 ul per well. GABAAR subtypes that bind flunitrazepam consist of α1-3,5,6β1-3γ1-3/δ GABAARs. Relative expression of GABAARs in the brain consist of 43% α1β2γ2, 15% α2β3γ2+8% α2βγ1, 10% α3β3γ2, 6% α4βγ/δ, 4% α5β3γ2, and 4% α6β2γ2/δ. […]
# Total binding and nonspecific binding are determined with reference compound clonazepam. […] Scintillation cocktail is then melted onto the microwave-dried filters on a hot plate and radioactivity counted in a Microbeta counter. The data (n=6) are analyzed by nonlinear regression.
# GABAA receptor binding: Rat brain membranes were prepared from frozen tissue that was thawed on ice and homogenized on ice in 10 volumes of cold lysis buffer (50 mM Tris HCl, pH 7.4, containing protease inhibitor cocktail; Roche) using a Polytron homogenizer (6 pulses and 10 seconds per pulse). […] Total binding and nonspecific binding were determined with reference compound clonazepam. […] Scintillation cocktail was then melted onto the microwave-dried filters on a hot plate and radioactivity counted in a Microbeta counter. The data (n=6) were analyzed by nonlinear regression.
# [4] = system: Swiss Webster mice, MC903 challenge; assay: MC903 mouse AD model, ear thickness; type: in vivo; conditions: 2 nmol topically on both ears, third week after MC903, p≤0.05 / p≤0.01
# From the text: An established mouse model of AD is used to evaluate the efficacy of PI320 in reducing ear thickness following MC903 challenge (for background on the model see: J Invest Dermatol 138, 2606-2616 [28]; Proc Natl Acad Sci USA, 103, 11736-11741 [29]; Sci Transl Med, 5, 170ra116 [30]; J Invest Dermatol, 138, 1555-1563 [31]). Ear thickness is used as a measure of inflammation caused by the chemical irritant.
# Briefly, commercially sourced female Swiss Webster mice (Charles River Laboratory, Wilmington, MA) at approximately seven weeks of age are used. Sixteen mice are housed under 7:00 AM-7:00 PM 12 h light cycle and administered 2 nmol MC903 on each ear on Monday, Wednesday and Friday for two weeks. The ear thickness increased from 0.3 mm to 0.7 mm during that time. During the third week, a group of eight mice were administered 2 nmol of PI320 topically on both ears (10 ul of a 100 uM solution in ethanol on each side of both ears). The control group received vehicle ethanol. Ear thickness is measured using calipers. […] See, FIG. 4.
# [5] = system: Swiss Webster mice with 3% Dextran sodium sulfate (DSS) induced ulcerative colitis; assay: Inflammatory bowel disease model, 3% DSS induced ulcerative colitis, bodyweight; type: in vivo; conditions: 100 mg/kg daily in peanut butter, 3% DSS water
# Method: as §1
# [6] = system: C57BL/6 mouse bladder strips with intact mucosa; assay: Functional analysis in overactive bladder model, carbachol-contracted bladder strips; parameters: species or system mice; conditions: 10 uM carbachol, cumulatively increasing concentrations 1-100 uM
# Method: C57BL/6 female mice (12 weeks, Harlan UK, Ltd) are euthanized by cervical dislocation. The bladder is removed after a midline laparotomy, the neck and trigone region cut away and the dome laid out as a sheet after an anterior wall incision. Strips with intact mucosa (5-7 mm length, 1-2 mm diameter) are dissected and tied in a horizontal trough between a fixed hook and an isometric force transducer. Preparations are superfused (3 ml·min−1) at 36° C. with Tyrode's solution. PI320 or DMSO vehicle are added to the superfusate and their effects on tension measured.
# Unstimulated preparations are allowed to equilibrate under tension (20 mN) until a stable base-line is recorded. The preparation is exposed to 10 µM carbachol and peak and steady-state tension recorded. In the continued presence of carbachol the preparation is also exposed to P1320 in cumulatively increasing concentrations (1, 3, 10, […], 100 uM) until a new steady-state is achieved at each concentration. For vehicle controls DMSO is added in rising concentrations (0.01, 0.03, 0.1, 0.3, 1.0% (v/v)) after a steady-state contraction is achieved with carbachol.
# Data are mean±SD; differences between multiple data sets were tested with repeated measures two-way ANOVA and Tukey post hoc tests.
# [7] = system: mice with INFγ/LPS induced lung inflammation; assay: Steroid resistant mouse asthma model (INFγ/LPS), airway hyperresponsiveness sRaw after methacholine; type: in vivo; conditions: for reduction of AHR (sRAW) versus vehicle control: nebulized 7.2 mg/kg, prior to second and third methacholine application, p≤0.005
# Method: Female A/J mice are purchased from Jackson Laboratory (Bar Harbor, ME) and female Swiss Webster mice are purchased from Charles River Laboratory (Wilmington, MA). Animals are given ad libitum access to food and water. Test drugs are prepared for nebulization as follows: a 3.0 mg/ml solution of albuterol (Millipore Sigma) is prepared in phosphate buffered saline (137 mM NaCl, 2.7 mM KCl, 10 mM Na2HPO4, and 1.8 mM KH2PO4) and PI320 is prepared as 3.2 mg/ml solution in water with 0.17% Tween-20. Airway hyperresponsiveness measurements, sRaw, are obtained using a Buxco FinePointe Non-Invasive Airway Mechanics instrument (DSI, St. Paul, MN) as described previously (ACS Pharmacol Transl Sci 3, 1381-1390).
# Efficacy of control drug (albuterol) and PI320 are determined by reduction of sRAW in mice compared to vehicle treated control mice. Here, mouse lung inflammation is induced with INFγ and bacterial lipopolysaccharide (LPS) via intratracheal installation. Elevated levels of IFNγ in the lung are observed for neutrophilic asthma patients, which respond poorly to steroid treatment (Eur Respir J 11, 312-316). One contributing factor is the impaired nuclear translocation of the liganded glucocorticoid receptor in pulmonary macrophages (Am J Respir Crit Care Med 191, 54-62). LPS simulates a microbial infection leading to macrophage-mediated inflammatory response (J Immunol 185, 4401-4409).
# The tracheal installation of INFγ/LPS increases airway hyper-responsiveness to an inhaled challenge agent as measured by sRAW, which is based on the breathing volume and frequency. The challenge agent, methacholine, is administered three times over 24 minutes resulting in sRAW of approximately 8.0 cmH2O*sec.
structure (smiles),measurement,setting,value
"C[C@H]1N=C(c2ccccc2F)c2cc(Br)ccc2-n2cnc(C(=O)O)c21 [MIDD0301, (R)-8-bromo-6-(2-fluorophenyl)-4-methyl-4H-benzo[f]imidazo[1,5-a][1,4]diazepine-3-carboxylic acid]",IC50,GABAA receptors [1],72 nM
"COCCOCCOCCOCCOCCNC(=O)c1ncn2c1[C@@H](C)N=C(c1ccccc1F)c1cc(Br)ccc1-2 [PI320, (R)-8-bromo-6-(2-fluorophenyl)-N-(2,5,8,11,14-pentaoxahexadecan-16-yl)-4-methyl-4H-benzo[f]imidazo[1,5-a][1,4]diazepine-3-carboxamide]",colon Myeloperoxidase (MPO) level versus vehicle group,[2],greatly reduced
same,IC50,GABAA receptors [3],242 nM
same,ear thickness versus vehicle control,[4],significantly reduces ear thickness
same,change of bodyweight in comparison to the initial weight,[5]; days 6 and 7,small drop in weight
same,change of bodyweight,[5]; from day 2,regained weight on day 2
same,contraction force of bladder strips versus DMSO controls,[6],concentration-dependent reduction of force
same,reduction of methacholine induced airway hyper-responsiveness compared with albuterol,[7]; administered via inhalation,at least as effective as albuterol
same,reduction of AHR (sRAW) versus vehicle control,[7],statistically significant reductions
COCCOCCNC(=O)C1N=CN2C3=C(CC(Br)C=C3)C(c3ccccc3F)=N[C@H](C)C12 (stereo partly drawn) [PI350],IC50,GABAA receptors [3],58 nM
COCCOCCOCCOCCNC(=O)C1N=CN2C3=C(CC(Br)C=C3)C(c3ccccc3F)=N[C@H](C)C12 (stereo partly drawn) [PI352],IC50,GABAA receptors [3],38 nM
"CC(C)(C)NCC(O)c1ccc(O)c(CO)c1 (stereo not drawn) [albuterol, reference compound]",reduction of AHR (sRAW) versus vehicle control,[7],statistically significant reductions
